Reference: patent US12617793B2, “Organic electron transfer mediator and device comprising same” (I-sens, Inc., priority 2019, dated 2026)

Assays:
[1] = Solubility depending on the solvent (seen from CV current strength); settings: for solubility in water: water / 0.1 M PBS aqueous buffer
[2] = Cyclic voltammetry of organic electron-transfer mediators (oxidation reduction potential vs Ag/AgCl); type: physicochemical; settings: for Eox / Ered: pH 7.0, 2 mg/mL in water, 0.1M PBS buffer, vs Ag/AgCl
[3] = compared to the Ag/AgCl reference electrode; cited from earlier work
[4] = Stability test by pH and solvent (CV after one day of the solution; colour change); type: physicochemical

SMILES: C=CCn1c2nc(=O)[nH]c(=O)c-2nc2cc(C#N)c(C#N)cc21 [Chemical formula 15]
- solubility in water [1]: very low
- E1/2 (vs Ag/AgCl) ([2]; 0.1M PBS in H2O): −0.196 V
- Eox [2]: −0.120 V
- Ered [2]: −0.216 V

SMILES: Cc1ccc(Cn2c3nc(=O)[nH]c(=O)c-3nc3cc(C#N)c(C#N)cc32)cc1 [Chemical formula 9, 10-(4-methylbenzyl)-2,4-dioxo-2,3,4,10-tetrahydrobenzo[g]pteridine-7,8-dicarbonitrile]
- E1/2 (vs Ag/AgCl) ([2]; 0.1M TBAP in DMSO): −0.296 V

SMILES: N#Cc1cc2nc3c(=O)[nH]c(=O)nc-3n(CCCCCO)c2cc1C#N [Chemical formula 6, 10-(5-hydroxypentyl)-2,4-dioxo-2,3,4,10-tetrahydrobenzo[g]pteridine-7,8-dicarbonitrile]
- E1/2 (vs Ag/AgCl) ([2]; 0.1M TBAP in DMSO): −0.325 V

SMILES: COc1ccc(Cn2c3nc(=O)[nH]c(=O)c-3nc3cc(C#N)c(C#N)cc32)cc1 [Chemical formula 10, 10-(4-methoxybenzyl)-2,4-dioxo-2,3,4,10-tetrahydrobenzo[g]pteridine-7,8-dicarbonitrile]
- E1/2 (vs Ag/AgCl) ([2]; 0.1M TBAP in DMSO): −0.298 V

SMILES: CC(C)(C)OC(=O)NCCCCCCn1c2nc(=O)[nH]c(=O)c-2nc2cc(C#N)c(C#N)cc21 [Chemical formula 5, tert-butyl (6-(7,8-dicyano-2,4-dioxo-3,4-dihydrobenzo[g]pteridin-10(2H)-yl)hexyl)carbamate]
- E1/2 (vs Ag/AgCl) ([2]; 0.1M TBAP in CH3CN): −0.330 V

SMILES: Cc1cc2nc3c(=O)[nH]c(=O)nc-3n(C)c2cc1C [flavin [or isoalloxazine]derivative]
- oxidation reduction potential [3]: −0.46 V

SMILES: N#Cc1cc2nc3c(=O)[nH]c(=O)nc-3n(CCO)c2cc1C#N [Chemical formula 16]
- solubility in acetonitrile ([1]; 0.1M TBAP in CH3CN): very low
- solubility in water [1]: prominent
- E1/2 (vs Ag/AgCl) ([2]; 0.1M PBS in H2O): −0.154 V
- E1/2 (vs Ag/AgCl) ([2]; 0.1M PBS in H2O, listed as drawing 56): −0.153 V
- E1/2 (vs Ag/AgCl) ([2]; 0.1M TBAP in CH3CN): −0.319 V
- E1/2 (vs Ag/AgCl) ([2]; 0.1M TBAP in DMSO): −0.315 V

SMILES: N#Cc1cc2nc3c(=O)[nH]c(=O)nc-3[nH]c2cc1C#N [Chemical formula 8, 2,4-dioxo-2,3,4,10-tetrahydrobenzo[g]pteridine-7,8-dicarbonitrile]
- E1/2 (vs Ag/AgCl) ([2]; 0.1M TBAP in DMSO): −0.494 V

SMILES: N#Cc1cc2nc3c(=O)[nH]c(=O)nc-3n(CCCS(=O)(=O)O)c2cc1C#N [Chemical formula 2, 3-(7,8-dicyano-2,4-dioxo-3,4-dihydrobenzo[g]pteridin-10(2H)-yl)propane-1-sulfonic acid]
- stability in DMSO ([4]; 0.1M TBAP in DMSO): changed to a different structure under DMSO
- stability by pH ([4]; CV after one day of the solution at pH 4-9): the current value decreased under the basic condition
- E1/2 (vs Ag/AgCl) ([2]; 0.1M PBS in H2O): −0.172 V
- E1/2 (vs Ag/AgCl) ([2]; 0.1M TBAP in CH3CN): −0.315 V
- E1/2 (vs Ag/AgCl) ([2]; 0.1M TBAP in DMSO): 0.061 V
- Eox [2]: −0.139 V
- Ered [2]: −0.229 V

SMILES: N#Cc1cc2nc3c(=O)[nH]c(=O)nc-3n(CCOCCO)c2cc1C#N [Chemical formula 7, 10-(2-(2-hydroxyethoxy)ethyl)-2,4-dioxo-2,3,4,10-tetrahydrobenzo[g]pteridine-7,8-dicarbonitrile]
- E1/2 (vs Ag/AgCl) ([2]; 0.1M TBAP in DMSO): −0.315 V

SMILES: CC(C)(C)OC(=O)NCCCCCn1c2nc(=O)[nH]c(=O)c-2nc2cc(C#N)c(C#N)cc21 [Chemical formula 4, tert-butyl (5-(7,8-dicyano-2,4-dioxo-3,4-dihydrobenzo[g]pteridin-10(2H)-yl)pentyl)carbamate]
- E1/2 (vs Ag/AgCl) ([2]; 0.1M TBAP in CH3CN): −0.330 V

SMILES: N#Cc1cc2nc3c(=O)[nH]c(=O)nc-3n(Cc3ccccc3)c2cc1C#N [Chemical formula 3, 10-benzyl-7,8-dicyanoisoalloxazine]
- E1/2 (vs Ag/AgCl) ([2]; 0.1M TBAP in DMSO): −0.285 V
